Experimental findings from US7579366B2, “Epothilone derivatives and their synthesis and use” (The Scripps Research Institute, priority 1998, dated 2009) are described below.

Each structure is given as a SMILES string.

The conditions of data set [1]: from C/C(=C\I)[C@@H](O)C/C=C(\CCC[C@H](C)[C@H](O[Si](C)(C)C(C)(C)C)[C@@H](C)C(=O)C(C)(C)[C@H](CC(=O)O)O[Si](C)(C)C(C)(C)C)COC(c1ccccc1)(c1ccccc1)c1ccccc1; ester bond; 2,4,6-trichlorobenzoyl chloride, Et3N, 4-DMAP (Yamaguchi); toluene; 4.66 mM; 75.0 °C; 2.5 h.
The target of data set [2] is T1, pig brain microtubuli protein (tubulin plus microtubuli-associated proteins) (Sus scrofa, UniProt P02554).
T1 construct: Microtubuli-protein is obtained from pig brain by two cycles of temperature dependent depolymerisation/polymerisation; from tissue; host or cells: pig brain
T1 sequence (P02554 whole entry): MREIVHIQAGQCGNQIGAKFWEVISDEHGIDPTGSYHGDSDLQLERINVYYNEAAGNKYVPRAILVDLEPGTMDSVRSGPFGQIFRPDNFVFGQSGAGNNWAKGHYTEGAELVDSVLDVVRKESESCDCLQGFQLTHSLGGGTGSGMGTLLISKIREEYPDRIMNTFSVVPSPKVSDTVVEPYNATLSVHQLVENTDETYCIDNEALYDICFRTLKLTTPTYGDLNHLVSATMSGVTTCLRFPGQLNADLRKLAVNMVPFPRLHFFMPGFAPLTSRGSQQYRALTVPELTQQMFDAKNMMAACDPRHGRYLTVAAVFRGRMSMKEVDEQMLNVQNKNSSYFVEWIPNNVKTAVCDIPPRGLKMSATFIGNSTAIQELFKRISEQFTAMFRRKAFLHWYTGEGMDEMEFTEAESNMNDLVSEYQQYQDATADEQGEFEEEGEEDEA
T1 sequence (P02550 whole entry partner): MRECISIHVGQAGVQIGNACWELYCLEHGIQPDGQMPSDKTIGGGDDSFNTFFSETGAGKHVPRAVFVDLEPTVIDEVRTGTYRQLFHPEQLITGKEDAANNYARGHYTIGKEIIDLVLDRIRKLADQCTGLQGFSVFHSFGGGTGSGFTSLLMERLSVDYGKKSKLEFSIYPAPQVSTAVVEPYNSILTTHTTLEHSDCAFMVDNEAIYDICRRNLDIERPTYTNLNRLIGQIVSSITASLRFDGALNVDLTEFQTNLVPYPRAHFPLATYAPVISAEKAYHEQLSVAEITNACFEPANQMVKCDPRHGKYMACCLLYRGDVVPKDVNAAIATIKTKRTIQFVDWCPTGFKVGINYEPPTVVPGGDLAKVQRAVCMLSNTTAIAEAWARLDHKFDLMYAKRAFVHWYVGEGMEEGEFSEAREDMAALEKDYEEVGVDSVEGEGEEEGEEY
Briefly: Induction of tubulin polymerisation, pig brain microtubuli, compared with 25 μM epothilone B. In kind it is biochemical. The note with it: 5 μM test compound versus epothilone B at 25 μM (in %). As for the experimental part: Stock solutions of the test compounds are made in DMSO and stored at −20° C. Microtubuli-protein is obtained from pig brain by two cycles of temperature dependent depolymerisation/polymerisation, as described (see Weingarten et al., Biochemistry 1974; 13: 5529-37). Working stock solutions of microtubule protein (meaning tubulin plus microtubuli-associated proteins) are stored at −70° C. The degree of the microtubuli protein polymerisation induced by a test compound is measured essentially as known from the literature (see Lin et al., Cancer Chem. Pharm. 1996; 38:136-140). In short, 5 μl stock solution of the test compound are pre-mixed in the twenty-fold of the desired final concentration with 45 μl of water at room temperature, and the mixture is then placed on ice. […] As indirect measure for the tubulin-polymerisation the protein concentration of the supernatant (which contains the rest of the un-polymerised, soluble microtubuli protein) is determined according to the Lowry method (DC Assay Kit, Bio-Rad Laboratories, Hercules, Calif.), and the optical density (OD) of the color reaction is determined at 750 nm with a spectrometer (SpectraMax 340, Molecular Devices, Sunnyvale, Calif.). […]

The test system of another data set is KB-31 cells. Description: Cell growth inhibition, KB-31 epidermoid carcinoma cells. In kind it is cell-based. The following applies: Homo sapiens, KB 3-1. The procedure: (§1) Stock solutions of the test compound of formula I 10 mM) in DMSO are prepared and stored at −20° C. Human KB-31 and (multidrug-resistant, P-gp 170 overexpressing) KB-8511 epidermoid carcinoma cells are from Dr. M. Baker, Roswell Park Memorial Institute (Buffalo, N.Y., USA) (for description see also Akiyama et al., Somat. Cell. Mol. Genetics 11, 117-126 (1985) und Fojo A., et al., Cancer Res. 45, 3002-3007 (1985)—KB-31 und KB-8511 both are derivatives of the KB-cell line (American Type Culture Collection) and are human epidermoid carcinoma cells. KB-31 cells can be cultivated in mono-layers using calf serum (M.A. Bioproducts), L-glutamine (Flow), penicillin (50 Units/ml) und streptomycin (50 μg/ml (Flow); they then grow with a doubling rate of about 22 hours, and the relative efficiency of plating them out lies at about 60%. […] After washing again, the stain is eluted with 3% HCl and the optical density at 665 nm is measured with a SpectraMax 340 (Molecular Devices, Sunnyvale, Calif.). IC50-values are determined by mathematically fitting the data to curves using the SoftPro2.0 program (Molecular Devices, Sunnyvale, Calif.) and the formula [(OD treated)−(OD start)]/[(OD control)−(OD start)]×100. […]

The next data set relates to KB-8511 cells. Description: Cell growth inhibition, KB-8511 epidermoid carcinoma cells (P-gp overexpressing). In kind it is cell-based. The note with it: Homo sapiens. The procedure:
as §1

The next data set concerns A549 cells. Briefly: Cell growth inhibition, A549 lung cells. The note with it: Homo sapiens. In kind it is cell-based.
Another data set has as its system HCT-15 cells. Description: Cell growth inhibition, HCT-15 colon cells. In kind it is cell-based. The note with it: Homo sapiens.
A further data set has as its system HCT-116 cells. Briefly: Cell growth inhibition, HCT-116 colon cells. The class given is cell-based. The following applies: Homo sapiens.
The test system of the next data set is DU145 cells. Briefly: Cell growth inhibition, DU145 prostate cells. The class given is cell-based. The note with it: Homo sapiens, DU-145.
Another data set concerns PC-3M cells. Description: Cell growth inhibition, PC-3M prostate cells. The note with it: Homo sapiens. The class given is cell-based.
In another data set the test system is MCF-7 cells. Description: Cell growth inhibition, MCF-7 breast cells. In kind it is cell-based. The note with it: Homo sapiens, MCF7.
The next data set relates to MCF-7/ADR cells. Description: Cell growth inhibition, MCF-7/ADR breast cells (multidrug resistant). The following applies: Homo sapiens, NCI/ADR-RES. In kind it is cell-based.

With `C/C(=C\I)[C@@H]1C/C=C(/COC(c2ccccc2)(c2ccccc2)c2ccccc2)CCC[C@H](C)[C@H](O[Si](C)(C)C(C)(C)C)[C@@H](C)C(=O)C(C)(C)[C@@H](O[Si](C)(C)C(C)(C)C)CC(=O)O1`, in data set [1], the ring closure, yield of all isomers was 84%.
A word on the IC50: it is the point on the concentration scale where inhibition reaches its midpoint. In the case of `C/C(=C\c1ccc(C)cn1)[C@@H]1C[C@@H]2O[C@]2(C)CCCC(C)[C@H](O)C(C)C(=O)C(C)(C)C(O)CC(=O)O1` (some centres unmarked) [D (Example 1), 5-Methylpyridine Analogue D of Epothilone B], the “Tubulin (%): induction of tubulin polymerisation” value in [2] was 88.9%. Besides, the IC50 in the data set on KB-31 cells turned out to be 0.108 nM; in the data set with KB-8511 cells, 0.105 nM; with A549 cells, 0.17 nM; with HCT-15 cells, 0.247 nM; in the data set on HCT-116 cells, 0.209 nM; in the data set with DU145 cells, 0.252 nM. Besides, the IC50 in the data set on PC-3M cells stood at 0.361 nM; with MCF-7 cells, 0.114 nM; with MCF-7/ADR cells, 0.853 nM.
